Data: US9688638B2, “Opioid agonists and uses thereof” (priority 2013, dated 2017)
Where “and” joins values, the source holds several entries; their conditions need not be identical. Identical values can stand only once. Like-named read-outs stand apart in the source and are kept apart here.

Tests used:
[1] = target: recombinant human kappa (KOR) opioid receptor (Homo sapiens (Human), UniProt P41145); test: biochemical; format: binding
KOR = KOR (Homo sapiens (Human), UniProt P41145); test: cAMP accumulation assay, forskolin-stimulated CHO-K1 cells stably expressing KOR; format: cell-based
Description: Inhibition of cAMP accumulation by select compounds was measured in forskolin-stimulated CHO-K1 cells stably expressing KOR. CHO-K1 cells stably expressing KOR were harvested using Invitrogen Cell Dissociation Buffer, and then centrifuged at 1200 rpm for five minutes. The supernatant was aspirated and cells were resuspended in assay buffer to a density of 4×10^5 cells/mL. 25 μL of cells were added into a white half-area 96 well plate. Fourteen point serial dilutions of test compounds were carried out in assay buffer (PBS with 0.5 mM IBMX). Ketazocine was used as a positive control for each assay. 12.5 μL of compound was added to the cells in duplicate for each test concentration. The cells were then stimulated with 12.5 μL forskolin at a final concentration 20 μM. Cells were incubated for 45 minutes in a 37° C., 5% CO2 water jacketed incubator. CisBio HTRF cAMP assay reagent was used for cAMP quantitation. Two hours after substrate addition, signal at 665/615 nm was measured using the Perkin Elmer Victor X4 HTRF reader. Data analysis was done using GraphPad Prism, sigmoidal dose-response (variable slope) curve fitting.

[2] = tested on: Swiss Albino or CD-1 male mice; test: Acetic acid writhing (AAW) analgesic assay; format: in vivo; details: for inhibition in vivo at 3 mg/kg / inhibition in vivo at 30 mg/kg / inhibition in vivo at 10 mg/kg / inhibition in vivo at 0.3 mg/kg: Mus musculus, 20 min, read-out: AAW % Efficacy
Description: Approaches for evaluating analgesic activity of a compound of the present invention in vivo include a “writhing test.” Briefly, the compound to be tested is administered [by, for example, injection (e.g., subcutaneous injection)] to the mouse. Thereafter, a 0.5% acetic acid solution is administered (i.p.) to a mouse and the numbers of writhing responses are counted for twenty minutes. Antinociception is quantified as reduction in the number of writhes respective to vehicle.
An analgesic assay was used to determine whether a given compound can reduce and/or prevent visceral pain in mice. The assay utilizes Swiss Albino or CD-1 male mice (5-10 mice per group), each mouse being approximately 0.015-0.030 kg on the study day. Mice were treated according to standard protocols.
The animal was given an intraperitoneal (IP) injection of an irritant (acetic acid) that induces “writhing” which may include: contractions of the abdomen, twisting and turning of the trunk, arching of the back and the extension of the hindlimbs. Mice are given a single IP injection (0.1 mL/10 g bodyweight) of a 0.5% acetic acid solution. After the injection the animals were returned to their observation enclosure and their behavior was observed. Contractions were counted between 0 and 20 minutes after the injection. The animals were used once. In certain instances, the test articles were administered at multiple doses to determine a dose response curve.
Table 4 provides the results for certain compounds of the present invention that were administered subcutaneously. Table 5 provides the results for certain compounds of the present invention that were administered orally.

[3] = inhibition of cAMP accumulation, forskolin 20 μM, read-out: EC50 cAMP (nM)-KOR

COCCOCCOCCOCCOCCNc1ccc2c(c1)[C@]1(C)CCN(CC3CC3)[C@H](C2=O)[C@@H]1C [Compound 2, (2S,6R,11R)-3-(Cyclopropylmethyl)-6,11-dimethyl-8-(2,5,8,11,14-pentaoxahexadecan-16-ylamino)-3,4,5,6-tetrahydro-2,6-methano-3-benzazocin-1(2H)-one]
IC50 [1]: 2380 nM | Ki [1]: 549 nM | EC50 (KOR; [3]): 139 nM

COCCOCCOCCOCCOCCOCCOCCNc1ccc2c(c1)[C@]1(C)CCN(CC3CC3)[C@H](C2=O)[C@@H]1C [Compound 3, (2S,6R,11R)-3-(Cyclopropylmethyl)-8-(2,5,8,11,14,17,20-heptaoxadocosan-22-ylamino)-6,11-dimethyl-3,4,5,6-tetrahydro-2,6-methano-3-benzazocin-1(2H)-one]
Ki ([1]; Cheng Prusoff correction, [3H]Diprenorphine 1 nM, CHO-K1 membranes, read-out: Kappa receptor binding Ki): 769 nM | IC50 ([1]; [3H]Diprenorphine 1 nM, CHO-K1 membranes, read-out: Kappa receptor binding IC50): 3330 nM | EC50 (KOR; [3]): 122 nM

COCCOCCOCCOCCOCCOCCOCCOc1ccc2c(c1)[C@]1(C)CCN(CC3CC3)[C@H](C2=O)[C@@H]1C [Compound 6, (2S,6R,11R)-3-(Cyclopropylmethyl)-8-(2,5,8,11,14,17,20-heptaoxadocosan-22-yloxy)-6,11-dimethyl-3,4,5,6-tetrahydro-2,6-methano-3-benzazocin-1(2H)-one]
IC50 [1]: 6080 nM | Ki [1]: 1400 nM | EC50 (KOR): 357 nM

COCCOCCOCCOCCOCCOc1ccccc1Nc1ccc2c(c1)[C@]1(C)CCN(CC3CC3)[C@H](C2=O)[C@@H]1C [Compound 7, (2S,6R,11R)-8-((2-(2,5,8,11,14-pentaoxahexadecan-16-yloxy)phenyl)amino)-3-(cyclopropylmethyl)-6,11-dimethyl-3,4,5,6-tetrahydro-2,6-methanobenzo[d]azocin-1(2H)-one]
inhibition in vivo at 3 mg/kg ([2]; sc, subcutaneous, 3 mg/kg): 38.8% | inhibition in vivo at 30 mg/kg ([2]; sc, subcutaneous): 84.8% | AAW percent efficacy, outlier data removed ([2]; subcutaneous, 3 mg/kg): 31.95

COCCOCCOCCOCCOCCOc1cccc(Nc2ccc3c(c2)[C@]2(C)CCN(CC4CC4)[C@H](C3=O)[C@@H]2C)c1 [Compound 8, (2S,6R,11R)-8-((3-(2,5,8,11,14-pentaoxahexadecan-16-yloxy)phenyl)amino)-3-(cyclopropylmethyl)-6,11-dimethyl-3,4,5,6-tetrahydro-2,6-methanobenzo[d]azocin-1(2H)-one]
inhibition in vivo at 3 mg/kg ([2]; sc, subcutaneous, 3 mg/kg): 38% | inhibition in vivo at 30 mg/kg ([2]; sc, subcutaneous): 100% | AAW percent efficacy, outlier data removed ([2]; subcutaneous, 3 mg/kg): 31.07

COCCOCCOCCOCCOCCOc1ccc(Nc2ccc3c(c2)[C@]2(C)CCN(CC4CC4)[C@H](C3=O)[C@@H]2C)cc1 [Compound 9, (2S,6R,11R)-8-((4-(2,5,8,11,14-pentaoxahexadecan-16-yloxy)phenyl)amino)-3-(cyclopropylmethyl)-6,11-dimethyl-3,4,5,6-tetrahydro-2,6-methanobenzo[d]azocin-1(2H)-one]
inhibition in vivo at 10 mg/kg ([2]; po, oral, 10 mg/kg): 38.5% | inhibition in vivo at 0.3 mg/kg ([2]; sc, subcutaneous, 0.3 mg/kg): 13.3% | inhibition in vivo at 3 mg/kg ([2]; sc, subcutaneous, 3 mg/kg): 67.8% | inhibition in vivo at 10 mg/kg ([2]; sc, subcutaneous, 10 mg/kg): 95.4% | inhibition in vivo at 30 mg/kg ([2]; sc, subcutaneous): 99.2% | AAW percent efficacy, outlier data removed ([2]; subcutaneous, 0.3 mg/kg): 13.18 | AAW percent efficacy, outlier data removed ([2]; subcutaneous, 3 mg/kg): 64.20 and 57.09 | AAW percent efficacy, outlier data removed ([2]; subcutaneous, 10 mg/kg): 94.93

COCCOCCOCCOCCOCCNc1ccc(Nc2ccc3c(c2)[C@]2(C)CCN(CC4CC4)[C@H](C3=O)[C@@H]2C)cc1 [Compound 10, (2S,6R,11R)-8-((4-(2,5,8,11,14-pentaoxahexadecan-16-ylamino)phenyl)amino)-3-(cyclopropylmethyl)-6,11-dimethyl-3,4,5,6-tetrahydro-2,6-methanobenzo[d]azocin-1(2H)-one]
inhibition in vivo at 30 mg/kg ([2]; sc, subcutaneous): 100% | AAW % Efficacy ([2]; subcutaneous, 3 mg/kg): 34.0% | AAW percent efficacy, outlier data removed ([2]; subcutaneous, 3 mg/kg): 26.63

COCCOCCOCCOCCOCCNc1cccc(Nc2ccc3c(c2)[C@]2(C)CCN(CC4CC4)[C@H](C3=O)[C@@H]2C)c1 [Compound 11, (2S,6R,11R)-8-((3-(2,5,8,11,14-pentaoxahexadecan-16-ylamino)phenyl)amino)-3-(cyclopropylmethyl)-6,11-dimethyl-3,4,5,6-tetrahydro-2,6-methanobenzo[d]azocin-1(2H)-one]
inhibition in vivo at 10 mg/kg ([2]; po, oral, 10 mg/kg): 31.2% | inhibition in vivo at 0.3 mg/kg ([2]; sc, subcutaneous, 0.3 mg/kg): 21.1% | inhibition in vivo at 3 mg/kg ([2]; sc, subcutaneous, 3 mg/kg): 62.2% | inhibition in vivo at 10 mg/kg ([2]; sc, subcutaneous, 10 mg/kg): 99.1% | inhibition in vivo at 30 mg/kg ([2]; sc, subcutaneous): 100% | AAW percent efficacy, outlier data removed ([2]; subcutaneous, 0.3 mg/kg): 12.30 | AAW percent efficacy, outlier data removed ([2]; subcutaneous, 3 mg/kg): 56.21 and 60.30 | AAW percent efficacy, outlier data removed ([2]; subcutaneous, 10 mg/kg): 99.00

COCCOCCOCCOCCOCCNc1nc2cc3c(cc2s1)C(=O)[C@@H]1[C@H](C)[C@@]3(C)CCN1CC1CC1 [Compound 13, (6S,10R,12R)-2-(2,5,8,11,14-pentaoxahexadecan-16-ylamino)-7-(cyclopropylmethyl)-10,12-dimethyl-7,8,9,10-tetrahydro-6,10-methanothiazolo[4′,5′:4,5]benzo[1,2-d]azocin-5(6H)-one]
inhibition in vivo at 10 mg/kg ([2]; sc, subcutaneous, 10 mg/kg): 40.2%

COCCOCCN1CC[C@@]2(C)c3cc(O)ccc3C(=O)[C@@H]1[C@@H]2C [Compound 14, (2S,6R,11R)-8-hydroxy-3-(2-(2-methoxyethoxy)ethyl)-6,11-dimethyl-3,4,5,6-tetrahydro-2,6-methanobenzo[d]azocin-1(2H)-one]
inhibition in vivo at 10 mg/kg ([2]; sc, subcutaneous, 10 mg/kg): 13.2%

COCCOCC(=O)Nc1ccc2c(c1)[C@]1(C)CCN(CC3CC3)[C@H](C2=O)[C@@H]1C [Compound 15, N-((2S,6R,11R)-3-(cyclopropylmethyl)-6,11-dimethyl-1-oxo-1,2,3,4,5,6-hexahydro-2,6-methanobenzo[d]azocin-8-yl)-2-(2-methoxyethoxy)acetamide]
inhibition in vivo at 10 mg/kg ([2]; sc, subcutaneous, 10 mg/kg): 100%

COCCNC(=O)c1ccc2c(c1)[C@]1(C)CCN(CC3CC3)[C@H](C2=O)[C@@H]1C [Compound 16, (2S,6R,11R)-3-(cyclopropylmethyl)-N-(2-methoxyethyl)-6,11-dimethyl-1-oxo-1,2,3,4,5,6-hexahydro-2,6-methanobenzo[d]azocine-8-carboxamide]
inhibition in vivo at 10 mg/kg ([2]; sc, subcutaneous, 10 mg/kg): 26.4%

COCCOCC(=O)NCc1ccc2c(c1)[C@]1(C)CCN(CC3CC3)C(C2=O)[C@@H]1C [Compound 17, N,N-(((2S,6R,11R)-3-(cyclopropylmethyl)-6,11-dimethyl-1-oxo-1,2,3,4,5,6-hexahydro-2,6-methanobenzo[d]azocin-8-yl)methyl)-2-(2-methoxyethoxy)acetamide]
inhibition in vivo at 10 mg/kg ([2]; sc, subcutaneous, 10 mg/kg): 23.3%

COCCOCCNCc1ccc2c(c1)[C@]1(C)CCN(CC3CC3)[C@H](C2=O)[C@@H]1C [Compound 18, (2S,6R,11R)-3-(cyclopropylmethyl)-8-(((2-(2-methoxyethoxy)ethyl)amino)methyl)-6,11-dimethyl-3,4,5,6-tetrahydro-2,6-methanobenzo[d]azocin-1(2H)-one]
inhibition in vivo at 10 mg/kg ([2]; sc, subcutaneous, 10 mg/kg): 31.9%

COCCOCCOCCOCCOCCOc1c(O)ccc2c1[C@]1(C)CCN(CC3CC3)[C@H](C2=O)[C@@H]1C [Compound 19, (2S,6R,11R)-7-(2,5,8,11,14-pentaoxahexadecan-16-yloxy)-3-(cyclopropylmethyl)-8-hydroxy-6,11-dimethyl-3,4,5,6-tetrahydro-2,6-methanobenzo[d]azocin-1(2H)-one]
inhibition in vivo at 10 mg/kg ([2]; sc, subcutaneous, 10 mg/kg): 31.6%

COCCOCCOCCOCCOCCO[C@@H]1c2ccc(O)cc2[C@]2(C)CCN(CC3CC3)[C@H]1[C@@H]2C [Compound 25, (1R,2S,6R,11R)-1-(2,5,8,11,14-pentaoxahexadecan-16-yloxy)-3-(cyclopropylmethyl)-6,11-dimethyl-1,2,3,4,5,6-hexahydro-2,6-methanobenzo[d]azocin-8-ol]
Ki [1]: 955 nM | EC50 (KOR; [3]): 195 nM

C[C@H]1[C@H]2C(=O)c3cc4sc(N)nc4cc3[C@]1(C)CCN2CC1CC1 [Step 1 of 13, (6S,10R,12R)-2-amino-7-(cyclopropylmethyl)-10,12-dimethyl-7,8,9,10-tetrahydro-6,10-methanothiazolo[4′,5′:4,5]benzo[1,2-d]azocin-5(6H)-one]
inhibition in vivo at 10 mg/kg ([2]; sc, subcutaneous, 10 mg/kg): 100%
